Data set [1] is described as follows: Half life in Lewis rat at 10 mg/kg, po measured upto 24 hrs by LC-MS/MS analysis. The format is ADME, organism-based. As to conditions: in vivo.
Data set [2] is described as follows: AUC(0 to t) in rat at 60 mg/kg/day after 2 weeks. As to conditions: in vivo. It is filed as ADME, organism-based. Details: dose 60 mg/kg/day, time 2 weeks.
The nature of data set [3]: Trough concentration in human whole blood at 80 mg, qd. The format is ADME, tissue-based. As to conditions: read-out: Cmin.
A short description of data set [4]: AUClast in CFA-induced rheumatoid arthritis Lewis rat model at 1 mg/kg, po administered once daily for 15 days. The format is ADME, organism-based. Details: route oral, dose 1 mg/kg, time 15 day. Particulars: in vivo.
The nature of data set [5]: Trough concentration in human whole blood at 80 mg, bid. Particulars: read-out: Cmin. It is filed as ADME, tissue-based.
A short description of data set [6]: AUClast in collagen-induced rheumatoid arthritis DBA/1J mouse model at 3 mg/kg, po administered twice daily for 15 days in presence of 0.75 mg/kg of methotrexate. The format is ADME, organism-based. Details: route oral, dose 3 mg/kg, time 15 day. As to conditions: in vivo.
The nature of data set [7]: Cmax in human whole blood at 80 mg, qd. The format is ADME, tissue-based. Details: dose 80 mg.
A short description of data set [8]: AUClast in collagen-induced rheumatoid arthritis DBA/1J mouse model at 3 mg/kg, po administered twice daily for 15 days. The format is ADME, organism-based. Further details: route oral, dose 3 mg/kg, time 15 day. As to conditions: in vivo.
The target in another data set is ORAI1/STIM1 (Homo sapiens, UniProt Q13586+Q96D31). The experiment in a line: Inhibition of Orai1/STIM1 (unknown origin) expressed in HEK293 cells assessed as reduction in Ca2+-release activated Ca2+ entry current by manual patch clamp based electrophysiological method. The format is cell-based.

Experimental findings from ChEMBL document CHEMBL4831556, “Discovery of a Novel Potent and Selective Calcium Release-Activated Calcium Channel Inhibitor: 2,6-Difluoro-N-(2'-methyl-3'-(4-methyl-5-oxo-4,5-dihydro-1,3,4-oxadiazol-2-yl)-[1,1'-biphenyl]-4-yl)benzamide. Structure-Activity Relationship and Preclinical Characterization” (J Med Chem, 2021) are described below.

Molecules are shown by their SMILES.

Sequence of ORAI1/STIM1 (Q96D31 whole entry): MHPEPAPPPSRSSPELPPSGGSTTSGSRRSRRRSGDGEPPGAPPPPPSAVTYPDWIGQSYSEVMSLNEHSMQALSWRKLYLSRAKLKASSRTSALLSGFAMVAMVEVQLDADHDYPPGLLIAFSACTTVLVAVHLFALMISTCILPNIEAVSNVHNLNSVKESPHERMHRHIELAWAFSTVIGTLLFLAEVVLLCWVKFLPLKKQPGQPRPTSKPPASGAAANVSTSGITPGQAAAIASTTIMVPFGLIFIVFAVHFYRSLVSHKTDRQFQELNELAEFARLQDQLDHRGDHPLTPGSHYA
Sequence of ORAI1/STIM1 (Q13586 whole entry): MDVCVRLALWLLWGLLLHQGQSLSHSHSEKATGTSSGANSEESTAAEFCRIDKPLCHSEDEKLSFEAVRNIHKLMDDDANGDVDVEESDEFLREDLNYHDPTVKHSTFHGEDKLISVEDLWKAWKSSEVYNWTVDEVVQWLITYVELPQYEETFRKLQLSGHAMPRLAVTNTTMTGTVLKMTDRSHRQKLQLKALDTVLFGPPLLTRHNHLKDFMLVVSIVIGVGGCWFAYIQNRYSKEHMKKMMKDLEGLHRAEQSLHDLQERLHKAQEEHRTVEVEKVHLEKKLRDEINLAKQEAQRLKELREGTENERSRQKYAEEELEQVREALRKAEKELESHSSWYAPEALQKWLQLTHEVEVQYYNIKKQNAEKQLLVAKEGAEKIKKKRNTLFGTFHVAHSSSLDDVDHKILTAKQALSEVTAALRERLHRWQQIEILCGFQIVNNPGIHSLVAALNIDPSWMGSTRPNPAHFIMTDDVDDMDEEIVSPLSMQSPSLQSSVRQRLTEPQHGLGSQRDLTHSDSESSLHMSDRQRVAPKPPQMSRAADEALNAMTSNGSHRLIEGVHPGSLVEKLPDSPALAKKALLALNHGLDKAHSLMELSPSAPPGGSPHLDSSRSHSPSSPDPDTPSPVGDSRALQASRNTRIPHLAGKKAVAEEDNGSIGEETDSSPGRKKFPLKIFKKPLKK

Take `Cc1c(-c2ccc(NC(=O)c3c(F)cccc3Cl)cc2)cccc1-c1nn(C)c(=O)o1`: in [1], the half-life was 16 h.
On to `Cc1c(-c2ccc(NC(=O)c3c(F)cccc3F)cc2)cccc1-c1nn(C)c(=O)o1`, for which the exposure AUC(0-t) at 336 h in data set [2] was determined as 76700 ng·h/mL. For the same compound, the concentration in data set [3] came to 185 nM; in data set [5], 667 nM. The AUC(0-t) at 360 h in [4] was determined as 36 µM·h; in data set [6], 13 µM·h; in data set [8], 12 µM·h. For the same compound, in [7], the Cmax is 950 nM. For the same compound, the IC50 on ORAI1/STIM1 came to 76 nM.
